Test results published in ChEMBL document CHEMBL4152291, “Synthesis and biological activities of dithiocarbamates containing 2(5H)-furanone-piperazine” (Eur J Med Chem, 2018).

Tests used:
SMMC-7721 [1] = assay: Growth inhibition of human SMMC7721 cells at 0.01 ug/ml after 72 hrs by MTT assay relative to control; assay type: functional; conditions: SMMC-7721, 72 h, read-out: GI
[2] = Growth inhibition of human LO2 cells at 0.5 ug/ml after 72 hrs by MTT assay relative to control; assay type: cell-based, L02; conditions: read-out: GI
[3] = Growth inhibition of human LO2 cells at 5 ug/ml after 72 hrs by MTT assay relative to control; assay type: cell-based, L02; conditions: read-out: GI
SMMC-7721 [4] = assay: Growth inhibition of human SMMC7721 cells at 5 ug/ml after 72 hrs by MTT assay relative to control; assay type: functional; conditions: SMMC-7721, 72 h, read-out: GI
SMMC-7721 [5] = assay: Growth inhibition of human SMMC7721 cells at 0.1 ug/ml after 72 hrs by MTT assay relative to control; assay type: functional; conditions: SMMC-7721, 72 h, read-out: GI
[6] = Growth inhibition of human LO2 cells at 0.1 ug/ml after 72 hrs by MTT assay relative to control; assay type: cell-based, L02; conditions: read-out: GI
[7] = Growth inhibition of human LO2 cells at 2.5 ug/ml after 72 hrs by MTT assay relative to control; assay type: cell-based, L02; conditions: read-out: GI
[8] = Growth inhibition of human LO2 cells at 0.01 ug/ml after 72 hrs by MTT assay relative to control; assay type: cell-based, L02; conditions: read-out: GI
HeLa [9] = assay: Cytotoxicity against human HeLa cells; assay type: functional, cell-based
SMMC-7721 [10] = assay: Growth inhibition of human SMMC7721 cells at 0.5 ug/ml after 72 hrs by MTT assay relative to control; assay type: functional; conditions: SMMC-7721, 72 h, read-out: GI
SMMC-7721 [11] = assay: Growth inhibition of human SMMC7721 cells at 2.5 ug/ml after 72 hrs by MTT assay relative to control; assay type: functional; conditions: SMMC-7721, 72 h, read-out: GI
HeLa [12] = assay: Growth inhibition of human HeLa cells at 100 ug/ml after 72 hrs by MTT assay relative to control; assay type: functional; conditions: read-out: GI
HeLa [13] = assay: Growth inhibition of human HeLa cells at 12.5 ug/ml after 72 hrs by MTT assay relative to control; assay type: functional; conditions: read-out: GI
HeLa [14] = assay: Growth inhibition of human HeLa cells at 25 ug/ml after 72 hrs by MTT assay relative to control; assay type: functional; conditions: read-out: GI
HeLa [15] = assay: Growth inhibition of human HeLa cells at 6.25 ug/ml after 72 hrs by MTT assay relative to control; assay type: functional; conditions: read-out: GI
HeLa [16] = assay: Cytotoxicity against human HeLa cells assessed as inhibition of cell proliferation after 72 hrs by MTT assay; assay type: functional, cell-based
HeLa [17] = assay: Growth inhibition of human HeLa cells at 50 ug/ml after 72 hrs by MTT assay relative to control; assay type: functional; conditions: read-out: GI
L02 = assay: Cytotoxicity against human LO2 cells assessed as inhibition of cell proliferation after 72 hrs by MTT assay; assay type: cell-based; conditions: L02, 72 h
SMMC-7721 [18] = assay: Induction of apoptosis in human SMMC7721 cells assessed as early apoptotic cells at 0.1 ug/ml after 72 hrs by Annexin-V-FITC/propidium iodide staining based flow cytometry (reference value: 2.61 to 3.3%); assay type: functional
SMMC-7721 [19] = assay: Induction of apoptosis in human SMMC7721 cells assessed as increase in late apoptotic cells after 72 hrs by Annexin-V-FITC/propidium iodide staining based flow cytometry; assay type: functional, cell-based
SMMC-7721 [20] = assay: Induction of apoptosis in human SMMC7721 cells assessed as early apoptotic cells at 0.5 ug/ml after 72 hrs by Annexin-V-FITC/propidium iodide staining based flow cytometry (reference value: 2.61 to 3.3%); assay type: functional
SMMC-7721 [21] = assay: Induction of apoptosis in human SMMC7721 cells assessed as necrotic cells at 0.5 ug/ml after 72 hrs by Annexin-V-FITC/propidium iodide staining based flow cytometry (reference value: 0.39 to 0.5%); assay type: functional
SMMC-7721 [22] = assay: Induction of apoptosis in human SMMC7721 cells assessed as necrotic cells at 0.1 ug/ml after 72 hrs by Annexin-V-FITC/propidium iodide staining based flow cytometry (reference value: 0.39 to 0.5%); assay type: functional
SMMC-7721 [23] = assay: Induction of apoptosis in human SMMC7721 cells assessed as early apoptotic cells at 5 ug/ml after 72 hrs by Annexin-V-FITC/propidium iodide staining based flow cytometry (reference value: 2.61 to 3.3%); assay type: functional
SMMC-7721 [24] = assay: Induction of apoptosis in human SMMC7721 cells assessed as live cells at 0.1 ug/ml after 72 hrs by Annexin-V-FITC/propidium iodide staining based flow cytometry (reference value: 92.87 to 93.39%); assay type: functional
SMMC-7721 [25] = assay: Induction of apoptosis in human SMMC7721 cells assessed as late apoptotic cells at 0.1 ug/ml after 72 hrs by Annexin-V-FITC/propidium iodide staining based flow cytometry (reference value: 3.34 to 3.62%); assay type: functional
SMMC-7721 [26] = assay: Induction of apoptosis in human SMMC7721 cells assessed as increase in early apoptotic cells after 72 hrs by Annexin-V-FITC/propidium iodide staining based flow cytometry; assay type: functional, cell-based
SMMC-7721 [27] = assay: Induction of apoptosis in human SMMC7721 cells assessed as late apoptotic cells at 0.5 ug/ml after 72 hrs by Annexin-V-FITC/propidium iodide staining based flow cytometry (reference value: 3.34 to 3.62%); assay type: functional
SMMC-7721 [28] = assay: Induction of apoptosis in human SMMC7721 cells assessed as late apoptotic cells at 5 ug/ml after 72 hrs by Annexin-V-FITC/propidium iodide staining based flow cytometry (reference value: 3.34 to 3.62%); assay type: functional
SMMC-7721 [29] = assay: Induction of apoptosis in human SMMC7721 cells assessed as necrotic cells at 5 ug/ml after 72 hrs by Annexin-V-FITC/propidium iodide staining based flow cytometry (reference value: 0.39 to 0.5%); assay type: functional
SMMC-7721 [30] = assay: Induction of apoptosis in human SMMC7721 cells assessed as live cells at 0.5 ug/ml after 72 hrs by Annexin-V-FITC/propidium iodide staining based flow cytometry (reference value: 92.87 to 93.39%); assay type: functional
SMMC-7721 [31] = assay: Induction of apoptosis in human SMMC7721 cells assessed as live cells at 5 ug/ml after 72 hrs by Annexin-V-FITC/propidium iodide staining based flow cytometry (reference value: 92.87 to 93.39%); assay type: functional

Structure (SMILES)	inhibition of growth at 0.01 µg/mL (SMMC-7721 [1]) [%]	inhibition at 72 h, 0.5 ug/ml [2] [%]	inhibition at 72 h, 5 ug/ml [3] [%]	inhibition of growth at 5 µg/mL (SMMC-7721 [4]) [%]	inhibition of growth at 0.1 µg/mL (SMMC-7721 [5]) [%]	inhibition at 72 h, 0.1 ug/ml [6] [%]	inhibition at 72 h, 2.5 ug/ml [7] [%]	inhibition at 72 h, 0.01 ug/ml [8] [%]	inhibition of growth at 0.5 µg/mL (SMMC-7721 [10]) [%]	inhibition of growth at 2.5 µg/mL (SMMC-7721 [11]) [%]	inhibition of growth at 100 µg/mL (HeLa [12]) [%]	inhibition of growth at 12.5 µg/mL (HeLa [13]) [%]	inhibition of growth at 25 µg/mL (HeLa [14]) [%]	inhibition of growth at 6.25 µg/mL (HeLa [15]) [%]	Activity (HeLa [16])	IC50 (HeLa [16]) [µM]	inhibition of growth at 50 µg/mL (HeLa [17]) [%]	also measured
Nc1ccn([C@@H]2O[C@H](CO)[C@@H](O)[C@@H]2O)c(=O)n1 [CYTARABINE]	13	13.3	25.4	63.1	16.1	3.02	18.8	-1.76	24	44.5	–	–	–	–	–	–	–	IC50 (HeLa [9]): 0.95 µM
CC[C@]1(O)C[C@H]2CN(CCc3c([nH]c4ccccc34)[C@@](C(=O)OC)(c3cc4c(cc3OC)N(C=O)[C@H]3[C@@](O)(C(=O)OC)[C@H](OC(C)=O)[C@]5(CC)C=CCN6CC[C@]43[C@@H]65)C2)C1 [VINCRISTINE]	12.3	7.26	16.5	68.5	17.7	1.39	11.5	1.6	23.9	45.7	–	–	–	–	–	–	–	–
C=CCSC(=S)N1CCN(C2=C(Br)C(=O)O[C@@H]2O[C@@H]2C[C@H](C)CC[C@H]2C(C)C)CC1	7.87	9.79	12.9	67.4	17	5.21	11.2	-1.9	21	40.7	57.4	44.5	41.7	45.6	Dose-dependent effect	0.06	53.8	IC50 (L02): 45.8 µM
COC(=O)CSC(=S)N1CCN(C2=C(Br)C(=O)O[C@@H]2O[C@@H]2C[C@H](C)CC[C@H]2C(C)C)CC1	4.41	11.1	26.6	64.5	9.68	6.98	15	0.87	21.4	40.1	36.9	10.9	11.3	8.57	Dose-dependent effect	0.32	35.3	–
CC(C)[C@@H]1CC[C@@H](C)C[C@H]1O[C@H]1OC(=O)C(Br)=C1N1CCN(C(=S)SCc2ccccc2)CC1	9.09	15	25.8	75	17	7.48	15.6	-3.31	20.9	39.2	45	37.5	43.5	32	Dose-dependent effect	0.26	46.4	Activity (SMMC-7721 [18]): 2.75 - 3.41%; Activity (SMMC-7721 [19]): Dose-dependent effect; Activity (SMMC-7721 [20]): 4.01 - 5.07%; Activity (SMMC-7721 [21]): 2.17 - 4.01%; Activity (SMMC-7721 [22]): 1.29 - 4.56%; Activity (SMMC-7721 [23]): 6.06 - 6.14%; Activity (SMMC-7721 [24]): 85.91 - 89.74%; Activity (SMMC-7721 [25]): 5.56 - 7.39%; Activity (SMMC-7721 [26]): Dose-dependent effect; Activity (SMMC-7721 [27]): 8.98 - 11.36%; Activity (SMMC-7721 [28]): 18.99 - 20.66%; Activity (SMMC-7721 [29]): 7.72 - 9.59%; Activity (SMMC-7721 [30]): 81.84 - 83.6%; Activity (SMMC-7721 [31]): 64.53 - 65.54%
